The subject of assay [1] is antibodies in sera from SARS patients (sera 1a, 1b, 2, 6, 37, 62, London, SARS-yellow, SARS-green). The assay is classed as binding, human. Also noted: Binding of serum 6 to linear peptides of protein X1 of SARS-CoV Urbani / Binding of serum 37 to linear peptides of protein X1 of SARS-CoV Urbani / Binding of serum 6 to looped/cyclic peptide (PEPSCAN-ELISA) / Binding of serum 37 to looped/cyclic peptide (PEPSCAN-ELISA) / Binding of serum 37 to looped/cyclic peptides of protein X1 of SARS-CoV Urbani / Binding of serum 6 to linear peptides of protein X2 / Binding of serum 37 to linear peptides of protein X2 / Binding of serum 37 to looped/cyclic peptides of protein X2 of SARS-CoV Urbani / Binding of serum 6 to linear peptides of protein M of SARS-CoV Urbani / Binding of serum 37 to linear peptides of protein M of SARS-CoV Urbani / Binding of serum 6 to looped/cyclic peptides of protein M of SARS-CoV Urbani / Binding of serum 37 to looped/cyclic peptides of protein M of SARS-CoV Urbani / Binding of serum 6 to linear peptides of protein X3 of SARS-CoV Urbani / Binding of serum 37 to linear peptides of protein X3 of SARS-CoV Urbani / Binding of serum 37 to looped/cyclic peptides of protein X3 of SARS-CoV Urbani / Binding of serum 6 to linear peptides of protein X4 of SARS-CoV Urbani / Binding of serum 37 to linear peptides of protein X4 of SARS-CoV Urbani / Binding of serum 37 to looped/cyclic peptides of protein X4 of SARS-CoV Urbani / Binding of serum 6 to linear peptides of protein X5 of SARS-CoV Urbani / Binding of serum 37 to linear peptides of protein X5 of SARS-CoV Urbani / Binding of serum 37 to looped/cyclic peptides of protein X5 of SARS-CoV Urbani / Binding of serum 6 to linear peptides of protein N of SARS-CoV Urbani / Binding of serum 37 to linear peptides of protein N of SARS-CoV Urbani / Binding of serum 6 to linear peptide (PEPSCAN-ELISA) / Binding of serum 1a to looped/cyclic peptides of protein N of SARS-CoV Urbani / Binding of serum 1b to looped/cyclic peptides of protein N of SARS-CoV Urbani / Binding of serum 2 to looped/cyclic peptides of protein N of SARS-CoV Urbani / Binding of serum 6 to looped/cyclic peptides of protein N of SARS-CoV Urbani / Binding of serum 37 to looped/cyclic peptides of protein N of SARS-CoV Urbani / Binding of serum 62 to looped/cyclic peptides of protein N of SARS-CoV Urbani / Binding of serum London to looped/cyclic peptides of protein N of SARS-CoV Urbani / Binding of serum SARS-green to looped/cyclic peptides of protein N of SARS-CoV Urbani: unit not given here.

The test system of assay [2] is control sera (pooled serum of ten healthy LUMC hospital workers; commercial negative donor pooled serum from the Dutch bloodbank). The assay is classed as binding, human. On the set-up: Binding of Control serum LUMC to linear peptides / Binding of Control serum Blood-bank to linear peptides / Binding of Control serum LUMC to looped peptides / Binding of Control Serum Blood-Bank to Looped peptides / Binding of Control serum LUMC to linear peptides of the protein M of SARS-CoV Urbani / Binding of Control serum Blood-bank to linear peptides of the protein M of SARS-CoV Urbani / Binding of Control serum LUMC to looped peptides of the protein M of SARS-CoV Urbani / Binding of Control Serum Blood-Bank to Looped peptides of the protein M of SARS-CoV Urbani: unit not given here.

For assay [3], the system named is rabbit serum obtained by immunizing a rabbit with the SARS-CoV strain Frankfurt 1. The assay is classed as binding. On the set-up: Binding of a rabbit serum to linear peptides / Binding of a rabbit serum to looped peptides / Rabbit serum linear peptides / Rabbit serum looped peptides / Binding of a rabbit serum to linear peptides of protein N of SARS-CoV Urbani (Rabbit serum linear peptides) / Binding of a rabbit serum to looped/cyclic peptides of protein N of SARS-CoV Urbani (Rabbit serum looped peptides): unit not given here.

As for TSTHFAFACADGTRH, in assay [1], the “Binding of serum 1a to linear peptides of protein X4 of SARS-CoV Urbani” value is 0.7, the “Binding of serum 1a to looped/cyclic peptides of protein X4 of SARS-CoV Urbani” value worked out at 0.8, the “Binding of serum 1b to linear peptides of protein X4 of SARS-CoV Urbani” value came out at 0.6 and the “Binding of serum 1b to looped/cyclic peptides of protein X4 of SARS-CoV Urbani” value is on record as 0.7. In addition, in assay [1], the “Binding of serum 2 to linear peptides of protein X4 of SARS-CoV Urbani” value came out at 0.5, the “Binding of serum 2 to looped/cyclic peptides of protein X4 of SARS-CoV Urbani” value is recorded as 0.6, the “Binding of serum 6 to linear peptides of protein X4 of SARS-CoV Urbani” value worked out at 0.7 and the “Binding of serum 6 to looped/cyclic peptides of protein X4 of SARS-CoV Urbani” value is 0.7. For the same sequence, in assay [1], the “Binding of serum 37 to linear peptides of protein X4 of SARS-CoV Urbani” value was determined as 0.7, the “Binding of serum 37 to looped/cyclic peptides of protein X4 of SARS-CoV Urbani” value was found to be 0.7, the “Binding of serum 62 to linear peptides of protein X4 of SARS-CoV Urbani” value is reported as 0.8 and the “Binding of serum 62 to looped/cyclic peptides of protein X4 of SARS-CoV Urbani” value was determined as 0.8. In addition, in assay [1], the “Binding of serum London to linear peptides of protein X4 of SARS-CoV Urbani” value worked out at 0.8, the “Binding of serum London to looped/cyclic peptides of protein X4 of SARS-CoV Urbani” value was found to be 0.4, the “Binding of serum SARS-green to linear peptides of protein X4 of SARS-CoV Urbani” value is 0.6 and the “Binding of serum SARS-green to looped/cyclic peptides of protein X4 of SARS-CoV Urbani” value is 0.6. In addition, in assay [1], the “Binding of serum SARS-yellow to linear peptides of protein X4 of SARS-CoV Urbani” value was determined as 0.2 and the “Binding of serum SARS-yellow to looped/cyclic peptides of protein X4 of SARS-CoV Urbani” value is on record as 0.7. In assay [2], the “Binding of Control Serum Blood-Bank to Looped peptides” value turned out to be 0.8, the “Binding of Control serum Blood-bank to linear peptides” value is 0.7, the “Binding of Control serum LUMC to linear peptides” value amounted to 0.8 and the “Binding of Control serum LUMC to looped peptides” value was determined as 0.8. In assay [3], the “Rabbit serum linear peptides” value came to 0.5 and the “Rabbit serum looped peptides” value was 0.7.

As for TTDTGIENATFFIFN, in assay [1], the “Binding of serum 1a to linear peptides of protein X1 of SARS-CoV Urbani” value was 0.8, the “Binding of serum 1a to looped/cyclic peptides of protein X1 of SARS-CoV Urbani” value is 0.6, the “Binding of serum 1b to linear peptides of protein X1 of SARS-CoV Urbani” value is 0.5 and the “Binding of serum 1b to looped/cyclic peptides of protein X1 of SARS-CoV Urbani” value turned out to be 0.6. In addition, in assay [1], the “Binding of serum 2 to linear peptides of protein X1 of SARS-CoV Urbani” value is 0.6, the “Binding of serum 2 to looped/cyclic peptides of protein X1 of SARS-CoV Urbani” value is reported as 0.7, the “Binding of serum 6 to linear peptides of protein X1 of SARS-CoV Urbani” value came out at 0.5 and the “Binding of serum 6 to looped/cyclic peptides of protein X1 of SARS-CoV Urbani” value was 0.6. In addition, in assay [1], the “Binding of serum 37 to linear peptides of protein X1 of SARS-CoV Urbani” value is 0.6, the “Binding of serum 37 to looped/cyclic peptides of protein X1 of SARS-CoV Urbani” value turned out to be 1.0, the “Binding of serum 62 to linear peptides of protein X1 of SARS-CoV Urbani” value is 0.5 and the “Binding of serum 62 to looped/cyclic peptides of protein X1 of SARS-CoV Urbani” value turned out to be 0.9. In addition, in assay [1], the “Binding of serum London to linear peptides of protein X1 of SARS-CoV Urbani” value was 0.3, the “Binding of serum London to looped/cyclic peptides of protein X1 of SARS-CoV Urbani” value was 0.3, the “Binding of serum SARS-green to linear peptides of protein X1 of SARS-CoV Urbani” value came out at 0.4 and the “Binding of serum SARS-green to looped/cyclic peptides of protein X1 of SARS-CoV Urbani” value is reported as 0.6. Moreover, in assay [1], the “Binding of serum SARS-yellow to linear peptides of protein X1 of SARS-CoV Urbani” value amounted to 0.5 and the “Binding of serum SARS-yellow to looped/cyclic peptides of protein X1 of SARS-CoV Urbani” value amounted to 0.5. For the same sequence, in assay [2], the “Binding of Control Serum Blood-Bank to Looped peptides” value is on record as 0.8, the “Binding of Control serum Blood-bank to linear peptides” value is recorded as 0.6, the “Binding of Control serum LUMC to linear peptides” value was found to be 1.0 and the “Binding of Control serum LUMC to looped peptides” value turned out to be 0.8. Further, in assay [3], the “Binding of a rabbit serum to linear peptides” value is given as 0.1 and the “Binding of a rabbit serum to looped peptides” value amounted to 0.5.

As for TVATSRTLSYYKLGA, in assay [1], the “Binding of serum 1a to linear peptides of protein M of SARS-CoV Urbani” value was 0.7, the “Binding of serum 1a to looped/cyclic peptides of protein M of SARS-CoV Urbani” value was determined as 0.8, the “Binding of serum 1b to linear peptides of protein M of SARS-CoV Urbani” value was found to be 0.6 and the “Binding of serum 1b to looped/cyclic peptides of protein M of SARS-CoV Urbani” value was 0.4. In assay [1], the “Binding of serum 2 to linear peptides of protein M of SARS-CoV Urbani” value stood at 0.7, the “Binding of serum 2 to looped/cyclic peptides of protein M of SARS-CoV Urbani” value turned out to be 0.6, the “Binding of serum 6 to linear peptides of protein M of SARS-CoV Urbani” value is reported as 0.6 and the “Binding of serum 6 to looped/cyclic peptides of protein M of SARS-CoV Urbani” value is reported as 1.1. Also, in assay [1], the “Binding of serum 37 to linear peptides of protein M of SARS-CoV Urbani” value was 0.8, the “Binding of serum 37 to looped/cyclic peptides of protein M of SARS-CoV Urbani” value came out at 0.5, the “Binding of serum 62 to linear peptides of protein M of SARS-CoV Urbani” value is 0.8 and the “Binding of serum 62 to looped/cyclic peptides of protein M of SARS-CoV Urbani” value turned out to be 0.5. Moreover, in assay [1], the “Binding of serum London to linear peptides of protein M of SARS-CoV Urbani” value amounted to 0.4, the “Binding of serum London to looped/cyclic peptides of protein M of SARS-CoV Urbani” value turned out to be 0.3, the “Binding of serum SARS-green to linear peptides of protein M of SARS-CoV Urbani” value was determined as 0.3 and the “Binding of serum SARS-green to looped/cyclic peptides of protein M of SARS-CoV Urbani” value came to 0.4. Moreover, in assay [1], the “Binding of serum SARS-yellow to linear peptides of protein M of SARS-CoV Urbani” value turned out to be 0.1 and the “Binding of serum SARS-yellow to looped/cyclic peptides of protein M of SARS-CoV Urbani” value is 0.5. Further, in assay [2], the “Binding of Control Serum Blood-Bank to Looped peptides of the protein M of SARS-CoV Urbani” value is given as 0.7, the “Binding of Control serum Blood-bank to linear peptides of the protein M of SARS-CoV Urbani” value is 0.8, the “Binding of Control serum LUMC to linear peptides of the protein M of SARS-CoV Urbani” value was 0.6 and the “Binding of Control serum LUMC to looped peptides of the protein M of SARS-CoV Urbani” value was 0.7. Moreover, in assay [3], the “Rabbit serum linear peptides” value is recorded as 0.8 and the “Rabbit serum looped peptides” value is 0.2.

For TYQLRARSVSPKLFI, in assay [1], the “Binding of serum 1a to linear peptides of protein X4 of SARS-CoV Urbani” value is recorded as 0.8, the “Binding of serum 1a to looped/cyclic peptides of protein X4 of SARS-CoV Urbani” value is reported as 0.9, the “Binding of serum 1b to linear peptides of protein X4 of SARS-CoV Urbani” value is listed as 0.6 and the “Binding of serum 1b to looped/cyclic peptides of protein X4 of SARS-CoV Urbani” value came out at 0.7. Besides, in assay [1], the “Binding of serum 2 to linear peptides of protein X4 of SARS-CoV Urbani” value was determined as 0.7, the “Binding of serum 2 to looped/cyclic peptides of protein X4 of SARS-CoV Urbani” value is 0.8, the “Binding of serum 6 to linear peptides of protein X4 of SARS-CoV Urbani” value is 0.9 and the “Binding of serum 6 to looped/cyclic peptides of protein X4 of SARS-CoV Urbani” value amounted to 1.3. Further, in assay [1], the “Binding of serum 37 to linear peptides of protein X4 of SARS-CoV Urbani” value was found to be 0.8, the “Binding of serum 37 to looped/cyclic peptides of protein X4 of SARS-CoV Urbani” value is recorded as 0.6, the “Binding of serum 62 to linear peptides of protein X4 of SARS-CoV Urbani” value was 0.9 and the “Binding of serum 62 to looped/cyclic peptides of protein X4 of SARS-CoV Urbani” value is 0.8. In assay [1], the “Binding of serum London to linear peptides of protein X4 of SARS-CoV Urbani” value was 0.9, the “Binding of serum London to looped/cyclic peptides of protein X4 of SARS-CoV Urbani” value was found to be 1.4, the “Binding of serum SARS-green to linear peptides of protein X4 of SARS-CoV Urbani” value came to 0.7 and the “Binding of serum SARS-green to looped/cyclic peptides of protein X4 of SARS-CoV Urbani” value turned out to be 0.2. In assay [1], the “Binding of serum SARS-yellow to linear peptides of protein X4 of SARS-CoV Urbani” value is 0.6 and the “Binding of serum SARS-yellow to looped/cyclic peptides of protein X4 of SARS-CoV Urbani” value is reported as 0.9. Also, in assay [2], the “Binding of Control Serum Blood-Bank to Looped peptides” value came out at 0.9, the “Binding of Control serum Blood-bank to linear peptides” value is given as 1.0, the “Binding of Control serum LUMC to linear peptides” value turned out to be 0.7 and the “Binding of Control serum LUMC to looped peptides” value was determined as 0.9. In addition, in assay [3], the “Recognition of the peptide by the rabbit serum” value is “recognized”.

(Values after patent US20070128217A1 (priority 2003, published 2007).)
